Measured values published in patent publication EP1985629A1, “Pro-apoptotic molecules and therapeutic uses thereof” (UNIVERSITA DEGLI STUDI DI GENOVA, priority 2007, dated 2008).
Where a SMILES comes first, the peptide text is derived from it. [ ]: non-standard residue; d: D form. Aib = CC(C)(N)C(=O)O

Columns and labels:
[1] = Circular dichroism, relative content of secondary structure elements; format: physicochemical; design: key to α-Helix / β-Strands / β-Turns / Random: relative content as fraction, from CDSSTR deconvolution; settings: CDSSTR deconvolution
Procedure: Circular dichroism (CD) spectra in the far-UV region (190-260 nm) were collected on a Jasco J-715 spectropolarimeter using a 0.1 cm path-length cuvette. Temperature was kept at 25°C by a Peltier device. Peptide concentration was determined from the absorption of the aromatic residues at 280 nm.
Peptides solutions: Bim-BH3Y and Bim-BH3YA2Aib were suspended in water and potassium hydroxide was added up to complete solubilization. 072RB was dissolved in water. Concentration of stock solutions was about 0.1 mg/ml. For circular dichroism measurements, stock solutions were diluted in 10 mM potassium phosphate buffer, pH 7.
The relative content of secondary structure elements was calculated with the deconvolution program CDSSTR [31] (Table 2). […] 072RB has the highest helical content in the set examined here (0.30 α-helix percent).

tumour cell lines = test: Propidium iodide (PI) uptake test, cell viability; format: cell-based, human; settings: treated for 4 days; data not shown
Procedure: PI uptake tests were performed to assess cell viability. Cells suspended in culture medium were incubated for 5 min with 3 µg/ml PI and analysed by flow cytometry. […] At least 10,000 events were acquired on a logarithmic scale from each sample.
Based on the results reported above we selected treatment concentrations of 5 µM and 10 µM for subsequent experiments. […] To evaluate whether the decreased cell growth was due to cell cycle arrest, cell death, or both, flow cytometry assays to assess cell viability and cell cycle behavior were performed. […] Flow cytometry measurements of DNA content and side scatter confirmed that the main cause of cell growth inhibition after 2 or 4 days of 072RB treatment at 5, 10 or 30 µM respectively, was cell death rather than cell cycle perturbation, as shown in Figure 3A for U937 cells. Three main cell populations can be observed in bivariate plots of side scatter (SSC) vs. DNA content (PI fluorescence), one with low SSC and normal DNA content (that accounts for cells "alive" in culture), another with high SSC and normal DNA content (cells undergoing "an early stage of apoptosis ") and another one with lower PI fluorescence (cells at "a late stage of apoptosis" and debris). The respective DNA histograms (projection of the dot plots on the x-axis) are reported for each plot. […]

[2] = relative content, 10 mM potassium phosphate buffer, pH 7, 25°C

With `CC[C@H](C)[C@H](NC(=O)[C@H](CCCNC(=N)N)NC(=O)[C@H](CCCNC(=N)N)NC(=O)[C@H](CC(C)C)NC(=O)[C@H](CCC(=O)O)NC(=O)[C@H](CCC(N)=O)NC(=O)C(C)(C)NC(=O)[C@@H](NC(=O)[C@H](Cc1ccc(O)cc1)NC(=O)[C@@H](NC(=O)[C@H](CCC(=O)O)NC(=O)[C@@H]1CCCN1C(=O)[C@H](CCCNC(=N)N)NC(=O)[C@H](CCSC)NC(=O)[C@@H](N)CC(=O)O)[C@@H](C)CC)[C@@H](C)CC)C(=O)NCC(=O)N[C@@H](CC(=O)O)C(=O)N[C@@H](C)C(=O)N[C@@H](Cc1ccccc1)C(=O)N[C@@H](CC(N)=O)C(=O)NC(C)(C)C(=O)N[C@@H](Cc1ccc(O)cc1)C(=O)N[C@@H](CCCCN)C(=O)N[C@@H](CCCCN)C(=O)N[C@@H](Cc1c[nH]c2ccccc12)C(=O)N[C@@H](CCCCN)C(=O)N[C@@H](CCSC)C(=O)N[C@@H](CCCNC(=N)N)C(=O)N[C@@H](CCCNC(=N)N)C(=O)N[C@@H](CC(N)=O)C(=O)N1CCC[C@H]1C(=O)N[C@@H](Cc1ccccc1)C(=O)N[C@@H](Cc1c[nH]c2ccccc12)C(=O)N[C@H](C(=O)N[C@@H](CCCCN)C(=O)N[C@H](C(=O)N[C@@H](CCC(N)=O)C(=O)N[C@@H](CCCNC(=N)N)C(N)=O)[C@@H](C)CC)[C@@H](C)CC` [Peptide 072RB] (H-DMRPEIYI[Aib]QELRRIGDAFN[Aib]YKKWKMRRNPFWIKIQR-NH2; N-terminus and C-terminus assumed) as the compound, how does the “relative content of helices” value [1] read?
The value was 0.30 α-helix percent.

And the Random [1, 2]?
The Random was 0.42.

What about the α-Helix [1, 2] of the same compound?
The α-Helix was 0.30.

What about the β-Strands [1, 2] of the same compound?
The β-Strands was 0.12.

And the β-Turns [1, 2]?
The β-Turns was 0.15.

What about the “cell death (PI uptake test)” value (tumour cell lines) of the same compound?
The value was “dose-dependent cell death”.
